Results taken from PMC12735951, “A Bioorthogonal TCO–Tetrazine-Based Pretargeted PET/NIRF Platform Enabling High-Contrast Tumor Imaging” (Pharmaceuticals, 2025).

Tests used:
U87MG xenograft = test: In vivo NIR fluorescence imaging, U87MG xenograft-bearing nude mice
Experimental: (§1) To evaluate the tumor-targeting characteristics of DZ-TCO derivatives, DZ-1-TCO, DZ-Lys-TCO, and DZ-Lys-PEG4-TCO were administered to HeLa and U87MG xenograft-bearing nude mice (100 μL of 50 μM, n = 3 per group). In vivo fluorescence imaging was conducted at 4, 24, 48, 72, and 96 h after TCO compound injection.
(§2) Female BALB/c nude mice (4–6 weeks old; 14–20 g), obtained from Beijing Vital River Laboratory Animal Technology Co., Ltd. (Beijing, China), were subcutaneously inoculated with 5 × 10^6 HeLa or U87MG cells suspended in 100 μL PBS into the right flank. Tumor growth was monitored every 2–3 days using digital calipers, and experiments were initiated when tumor volumes reached approximately 150–300 mm^3, calculated using the formula Volume = (length × width^2)/2.
(§3) To assess the tumor-targeting capability and clearance kinetics of DZ-TCO precursors, 100 µL of each compound ([…] in PBS) was administered intravenously via the tail vein. Whole-body fluorescence imaging was performed at predetermined time points (4, 24, 48, 72, and 96 h post-injection) using the IVIS Spectrum imaging system (PerkinElmer, Shelton, CT, USA) (excitation/emission, 745/820 nm) with automatic subtraction of background fluorescence during the acquisition. Fluorescence signals were acquired under standardized exposure settings, and region-of-interest (ROI) analysis was conducted using Living Image software version 4.4 (PerkinElmer) to quantify fluorescence intensity in the tumor and major organs.

HeLa and U87MG xenograft = test: In vivo NIR fluorescence imaging, results not split by tumor model (organs, tumor-to-background ratios, retention); parameters: species or system mice; details: for time of peak tumor fluorescence signal / tumor fluorescence signal remained detectable (time post-injection): post-injection
Experimental: as §1, §2
as §3, with “([…])” for “(4, 24, 48, 72, and 96 h post-injection)”

HeLa xenograft = test: In vivo NIR fluorescence imaging, HeLa xenograft-bearing nude mice
Experimental: as §1, §2, §3

Row | tumor fluorescence intensity (U87MG xenograft; 4 h post-injection) | tumor fluorescence intensity (U87MG xenograft; 24 h post-injection) | tumor fluorescence intensity (U87MG xenograft; 48 h post-injection) | tumor-to-background fluorescence ratio (HeLa and U87MG xenograft; 4 h) | tumor-to-background fluorescence ratio (HeLa and U87MG xenograft; 48 h) | time of peak tumor fluorescence signal (HeLa and U87MG xenograft) | tumor fluorescence signal remained detectable (time post-injection) (HeLa and U87MG xenograft) | tumor fluorescence intensity (HeLa xenograft; 4 h post-injection) | tumor fluorescence intensity (HeLa xenograft; 24 h post-injection) | tumor fluorescence intensity (HeLa xenograft; 48 h post-injection) | tumor-to-background fluorescence ratio (HeLa and U87MG xenograft; 24 h) | SMILES
1 | 5.44 × 10^9 p/s/cm^2/sr | 6.12 × 10^9 p/s/cm^2/sr | 4.82 × 10^9 p/s/cm^2/sr | 695.00 ± 59.15 | 720.00 ± 64.21 | 24 h | 72 h | 6.38 × 10^9 p/s/cm^2/sr | 6.93 × 10^9 p/s/cm^2/sr | 5.57 × 10^9 p/s/cm^2/sr |  | CC1(C)C(=CC=C2CCCC(C=CC3=[N+](CCCCS(=O)(=O)[O-])c4ccccc4C3(C)C)=C2Cl)N(CCCCCC(=O)NCCCNC(=O)OC2CCC=CCCC2)c2ccccc21 (stereo not drawn) [DZ-1-TCO]
2 |  |  |  | 737.00 ± 159.93 |  | 24 h | 96 h |  | 1.20 × 10^10 p/s/cm^2/sr |  | 1303.33 ± 116.76 | CC1(C)C(=CC=C2CCCC(C=CC3=[N+](CCCCS(=O)(=O)[O-])c4ccccc4C3(C)C)=C2Cl)N(CCCCCC(=O)NCCCCC(N)C(=O)NCCOCCOCCOCCOCCNC(=O)OC2CCC=CCCC2)c2ccccc21 (stereo not drawn) [DZ-Lys-PEG4-TCO]
